Measured values reported in a melting point compilation (Tetko et al.; mined from patent text by program, amines drawn as free bases though some values may be those of a salt).

| Structure (SMILES) | melting point |
| --- | --- |
| Oc1ccc2oc3ccccc3c2c1Cn1c(=S)sc2ccccc21 | 174 to 180 °C |
| COc1cc2c(cc1OC)-c1c(C(=O)NC3CCCCC3)c(-c3cc(C)c(O)c(C)c3)c(C)n1CC2 | 273 to 276 °C |
| O=C(Nc1cn(C2CCCCO2)nc1C(=O)NCCC(F)(F)F)c1ccccn1 (configuration not stated) | 144 to 145 °C |
| Cc1cc(OCc2ccccc2)ccc1OCc1ccccc1 | 42 to 43 °C |
| Nc1ccc(C#Cc2nc(F)c(F)c(F)c2F)c(C#Cc2nc(F)c(F)c(F)c2F)c1 | 164 to 165 °C |
| CCOC(=O)CN(C)CC=CC(=O)Nc1ccc2ncnc(Nc3cccc(Br)c3)c2c1 | 182 to 183 °C |
| Clc1ccc2c(N[C@@H]3CCC[C@H](Nc4ccnc5cc(Cl)ccc45)C3)ccnc2c1 | > 250 °C |
| O=C1c2ccccc2C(=O)N1c1ccccc1CSc1nccn1-c1ccncc1 | 145 to 147 °C |
| COC(=O)c1ccc(OCc2ccc(Cl)cc2)cc1OCc1ccccc1 | 99 to 101 °C |
| O=C(Nc1ccc(Cl)cc1)C1=C(O)CS(=O)(=O)N(Cc2ccc(Cl)cc2)c2ccccc21 | 182 to 183 °C |
| CC(=O)SCCNc1nc(-c2ccccc2)c2cc(Cl)ccc2n1 | 129 °C |
| CCOC(=O)c1cn(CC)c2nc(N3CCN(Cc4ccc(Cl)cc4)CC3)ncc2c1=O | 150 °C |
| O=C1CCC(c2ccccc2)(c2ccccc2)[C@@H]2CN(C(=O)Cc3c(F)cccc3F)C[C@H]12 (racemic) | 218 °C |
| CCN(CC)CC1CCCCN1CCNC(=O)N1c2ccccc2C(=O)Nc2cccnc21 (configuration not stated) | 175 to 176 °C |
| CC1(C)C(=N)N(CC(N)=O)c2ccccc21 | 167 to 173 °C |
| CCCNC(=O)NC1Cc2ccc(C3=NNC(=O)CC3)cc2C1 (configuration not stated) | 214 to 216 °C |
| COC(=O)c1cc(F)c(C(F)(F)F)cc1[N+](=O)[O-] | 66 to 68 °C |
| CC(C)(COc1nn2ccnc2c2c1CCCC2)CS(N)(=O)=O | 198 to 200 °C |
| Cc1oc(-c2ccco2)nc1COc1ccc(COc2nn(C)cc2CC(=O)O)cn1 | 155 to 156 °C |
| CCCCCN1C(=O)C(CO)(c2ccc3c(c2)OCO3)c2ccccc21 (configuration not stated) | 110 to 113 °C |

| Structure (SMILES) | melting point |
| --- | --- |
| Cc1cc(C)n(Cc2ccc(Cl)c(Cl)c2)c(=O)c1C#N | 139 to 141 °C |
| O=C(NCc1ccc(Cl)cc1)c1cnc2c(F)cc(-c3cccs3)cc2c1O | 298 to 301 °C |
| CCCOC(=O)CS(=O)(=O)C=C1SC=CS1 | 141 to 142 °C |
| Cc1cc(C)c2c3ccccc3c(=O)n(CCN(C)C)c2n1 | 128 to 130 °C |
| CN(C)CCn1c2c(c3ccccc31)CCSCCC2 | 62 to 64 °C |
| O=C1c2c(Cl)cccc2-n2cnc(-c3noc(CN4Cc5ccccc5C4)n3)c2[C@@H]2CCN12 | 218 to 222 °C |
| CC(C)(C)OC(=O)NC1CCCCCC=CC2CC2(C(=O)NS(=O)(=O)C2CC2)NC(=O)C2CC(OC(=O)c3ccc4c(c3)OCO4)CN2C1=O (configuration not stated) | 153 to 155 °C |
| COc1ccc(Oc2nccc(-c3c(-c4ccc(F)cc4)ncn3C3CCNCC3)n2)cc1 | 190 to 191 °C |
| Cc1cc2c(s1)S(=O)(=O)N=C(NC(C)C)N2 | 272 to 273 °C |
| O=C1CNN(Cc2ccc(Cl)cc2Cl)C(=O)N1 | 167 °C |
| CC(O)CN(C)c1nnc2c3ccc(Cl)cc3c(-c3ccccc3)nn12 (configuration not stated) | 236 to 238 °C |
| Cc1c(C(=O)Nc2ccc(N3CCC(NCCO)CC3)c(C#N)c2)cnn1-c1ccc(Cl)cc1 | 181 °C |
| O=c1c2c[nH]c3ccccc3c-2nn1-c1ncccn1 | > 360 °C |
| CCOC(=O)c1cn(N)c2c(F)c(F)c(F)cc2c1=O | 217 °C |
| Brc1c[nH]c2ccc(Nc3ncnc4cc(-c5ccccc5)sc34)cc12 | 201 to 203 °C |
| Cc1cc(C)c(COc2cccnc2NC(=S)Nc2ccc(Cl)cc2)c(C)c1 | 180 to 182 °C |
| COc1nc(C)nc(NC(=O)NS(=O)(=O)Cc2ccccc2-c2nnc(SC)o2)n1 | 175 to 177 °C |
| COc1ccccc1-n1nc(S(=O)(=O)c2ccc(Cl)cc2)c(C)c(C#N)c1=O | 175 to 178 °C |
| O=C(CCC1CCCCC1)NC1N=C(c2ccccc2)c2ccccc2-n2c1noc2=O (configuration not stated) | 226 °C |
| OCCNc1cc(Nc2ccc(N3CCOCC3)cc2)ncn1 | 204 to 207 °C |

| Structure (SMILES) | melting point |
| --- | --- |
| CC(C)(C)C1CC(=Cc2ccccc2)C(=O)C(=Cc2ccccc2)C1 (configuration not stated) | 137 to 139 °C |
| CN(O)C(=O)C=Cc1ccc2ccccc2c1 | 138 to 140 °C |
| Cn1nc(N)nc1NCCCOc1cccc(CN2C(=O)c3ccccc3C2=O)c1 | 55 to 57 °C |
| CC(=O)OCC(=O)C1(OC(C)=S)CCC2C3CC(C)C4=CC(=O)C=CC4(C)C3C(O)CC21C (configuration not stated) | 149 to 151 °C |
| CCOC(=O)C1CNc2cc(NS(C)(=O)=O)ccc2O1 (configuration not stated) | 149 to 151 °C |
| CCCCCCCCCCCCCCc1ccc(OC)cc1 | 38 °C |
| NC(=O)C1CN(Cc2ccccc2)CCN1CCCC(c1ccc(F)cc1)c1ccc(F)cc1 (configuration not stated) | 79.2 °C |
| CS(=O)(=O)c1ccc(C(=O)c2cc(-c3cccnc3)c(N3CCOCC3)s2)cc1 | 147 °C |
| OC1c2ccc(OCc3ccccc3)cc2OCC1N1CCC(O)(c2ccc(F)cc2)CC1 (configuration not stated) | 194 to 195 °C |
| CC1(C)OC(=O)Nc2ccc(I)cc21 | 196 to 197 °C |
| COc1ccc(Cn2[nH]c(N)cc2=O)cc1 | 161 °C |
| CC(c1ccc(O)cc1)(c1ccc(O)cc1)c1ccc2ccccc2c1 | 185 to 186 °C |
| CC=CC=CCOC(=O)C1=C(C)NC(C)=C(C(=O)OC(C)(C)C)C1c1cccc([N+](=O)[O-])c1 (configuration not stated) | 152 to 154 °C |
| CCCc1nc2c(N)nc(C)c(C)c2n1CCCCS(C)(=O)=O | 152 to 153 °C |
| O=S(=O)(Cl)c1ccc(Cl)c(CCl)c1Cl | 68 °C |
| CN(CCCN=C(NC#N)c1cc(C(C)(C)C)c(O)c(C(C)(C)C)c1)CCOc1ccc2c(c1)OCO2 | 129 to 130 °C |
| COc1cccc(Nc2n[nH]c(N)c2C#N)c1 | 177 to 180 °C |
| O=C(CCCN1C(=O)c2ccccc2C1=O)Nc1nnc(SCc2ccccc2)s1 | 128 to 131 °C |
| Cc1c(C(=O)c2ccc(F)cc2)cccc1[N+](=O)[O-] | 64 °C |

The next lines start with the values.

| melting point | Structure (SMILES) |
| --- | --- |
| 91 to 92 °C | Cn1c(Cl)c([N+](=O)[O-])c(=O)n(C)c1=O |
| 162 °C | Cc1ccc(-c2c(NS(=O)(=O)c3ccc(C(C)(C)C)cc3)ncnc2OCCOc2ncc(SC(C)C)cn2)cc1 |
| 132 to 133 °C | CCC(CC(N)=O)c1cccc2nc3n(c12)CCCN3c1ccc(Cl)cc1Cl (configuration not stated) |
| 124 to 125 °C | CC(=O)N(CCCC(=O)O)c1ccccc1-c1ccccc1 |
| 105 to 106 °C | CCCc1cc(C(=O)CCCC(=O)O)ccc1OC |
| 185 to 186 °C | CCCOc1ccc(C(=O)N/C(=C\c2ccc(OC(F)(F)F)cc2)C(=O)NCCO)cc1 |
| 164 to 166 °C | CCOC(=O)CCN(C1(C(=O)O)CCCC1)S(=O)(=O)c1ccc(Oc2ccc(F)cc2)cc1 |
| 79 to 80 °C | NNc1ccc(C(F)(F)F)c(Cl)c1Cl |
| 152 to 154 °C | Cc1[nH]cnc1CCCCNC(=N)N |
| 83 to 84 °C | CCCCCCNC1=CC(=O)c2c(OC)ccc(OC)c2C1=O |
| 252 to 255 °C | CC(=O)N1CCC2(CC1)CSC1=C(O2)c2ccccc2C(=O)C1=O |
| 201 °C | ON=C1c2ccccc2C2CC2c2ccccc21 (configuration not stated) |
| 209 to 210 °C | O=C(O)C1Cc2c(c(Cl)cc3c(-c4cccc(F)c4)noc23)O1 (configuration not stated) |
| 228 to 230 °C | CC12CCC(C(=O)O)=CC1=CCc1cc(Cl)ccc12 (single isomer, unassigned; (-)) |
| 265 to 266 °C | O=C(O)COc1ccc2c(c1)C[C@H](NC[C@H](O)c1cccc(Cl)c1)CCC2 |
| 118 to 121 °C | Nc1ncc2c(n1)CCC(CNC(=O)[C@@H]1CCCN1C(=O)[C@@H](Cc1ccccc1)NS(=O)(=O)Cc1ccccc1)C2 (some centres not stated) |
| 189 °C | O=C1OC(CO)CN1c1ccc(O)cc1 (configuration not stated) |
| 112 to 147 °C | CCC1(C)CC(NC(=O)c2ccccc2)C(C)C(C)(CC)N1OC(C)c1ccccc1 (configuration not stated) |
| 120 °C | O=C1CCCN1C(=O)NCCS(=O)c1ccccn1 (configuration not stated) |

| melting point | Structure (SMILES) |
| --- | --- |
| 46 to 63 °C | CN1CCN(C2=Nc3ccccc3Sc3ccccc32)C[C@H]1Cc1ccccc1 |
| 140 to 142 °C | CCc1nc2csc(C(=S)OC)c2[nH]1 |
| 150 to 153 °C | CN1CCN(c2nnc3c4ccccc4c(Cl)cn23)CC1 |
| 235 to 236 °C | O=C1Nc2ccccc2C12COc1cc3c(cc12)OCCCO3 (configuration not stated) |
| 257 to 258 °C | CCc1cc(C(C)=O)c(O)c(C(=O)Nc2nnn[nH]2)c1 |
| 178 to 179 °C | Cc1cccc2c1nc(-c1ccccc1F)n2CC(O)C(C)(C)C (configuration not stated) |
| 143 to 144 °C | CNC(=O)CC1CN=C(c2cc3cc(Oc4ccc(S(C)(=O)=O)nc4)cc(OC4CCOCC4)c3[nH]2)S1 (configuration not stated) |
| 258 °C | Nc1ccc(-c2noc(-c3cnc4ccc(-c5ccc(C(F)(F)F)cc5)cn34)n2)cn1 |
| 161 to 162 °C | CC(C(=O)O)c1ccc2nc(-c3ccccc3)ccc2c1 (configuration not stated) |
| 182 to 184 °C | COC(=O)C1=C(C)NC(C)=C(c2nc(N(C)Cc3ccccc3)no2)C1c1cccc([N+](=O)[O-])c1 (configuration not stated) |
| 72 to 74 °C | CC1=CC(OC(=O)C=Cc2ccc(N)cc2)C(O)C(C)(C)CC1=O (configuration not stated) |
| 193 to 197 °C | COc1ccc(NC(=O)c2ccc([N+](=O)[O-])cc2N)cc1 |
| 253 to 256 °C | COc1cc2c(c(OC)c1OC)C=C(C=CC(=O)N1CCC(C3CCN(C(=O)C=CC4=Cc5c(cc(OC)c(OC)c5OC)CC4)CC3)CC1)CC2 |
| 215 to 216 °C | COc1ccccc1N1CCN(CCn2c(=O)c3sccc3n(CCC(=O)O)c2=O)CC1 |
| 129 to 132 °C | Cc1c(Cl)cc(C(=O)CC(Cl)C(=O)O)cc1Cl (configuration not stated) |
| 89 °C | CCCCCCCCN(CC(=O)NO)S(=O)(=O)c1ccc(C)cc1 |
| 138 to 142 °C | CCN1C(=O)C(C)(C)C(=O)N(C)c2cc(CN(CCn3ccc4ccsc4c3=O)Cc3cnccc3C)ccc21 |
| 336 to 338 °C | Oc1ccc(-c2nc3ccccc3nc2-c2ccc(O)cc2)cc1 |
| 99 to 102 °C | COC(=O)C(Oc1ccc(Cl)cc1)c1ccc(Oc2ccccc2)cc1 (configuration not stated) |
